Test results taken from patent US20090061022A1, “Pharmaceutical composition comprising arsenite for the treatment of malignancy” (priority 2004, published 2009).
pIC50: −log10 of the molar value. “And” between values parts separate entries of the source, which are not always exact repeats. Equal entries are not always repeated.

Legend:
RXF 944LX [1] = assay: Dose finding study in human renal cancer model RXF 944LX in nude mice (i.p. days 0, 7, 14)
Description: In a dose finding study, the potential anticancer activity of sodium meta-arsenite and arsenic acid sodium salt versus arsenic trioxide was examined in the human renal cancer model, RXF 944LX.
(§1) Cancer fragments (1-2 mm in diameter), obtained from xenografts in serial passage in nude mice, were implanted subcutaneously (S.C.) in a flank of male NRMI nude mice (one fragment per mouse). Mice with appropriate cancer volumes (5-7 mm in diameter) were randomly distributed to treatment and control groups (4 mice/group). The start of treatment was day 0. Cancer volume and body weights were measured at least twice per week.
1) Sodium meta-arsenite (3, 10, 30 mg/kg/day), 2) Arsenic acid sodium salt (3, 10, 30 mg/kg/day) and 3) Arsenic trioxide (3, 10, 30 mg/kg/day) were administered intraperitoneally (i.p.) once daily on days 0, 7 and 14.
Stock solution of sodium meta-arsenite and arsenic acid sodium salt (3 mg/ml) were prepared in 5% (w/v) dextrose solution, respectively, to minimize acute arsenic toxicity. For arsenic trioxide, 9 mg of arsenic trioxide was dissolved in 1M NaOH (75 μl) followed by mixing with sterile aqua injectabilia (2175 μl) and sterile 20% (w/v) dextrose in water (500 μl). Further dilution to the desired concentration was done with a 5% dextrose solution to give a final concentration of 3 mg/ml.
(§2) The cancer volume of each animal was determined by two-dimensional measurement using calipers. The volume was calculated according to the formula: (a×b^2)×0.5; wherein a and b represent two perpendicular diameters in which a (length) is the larger diameter and b (width) the smaller diameter.
(§3) Relative cancer volumes (RCV) were calculated for each individual cancer by dividing the cancer volume on day X by the cancer volume on day 0 multiplied by 100%. The cancer volume of a treatment group was expressed as the median RCV of all mice of the group. Median RCV values were used for drawing growth curves and treatment evaluation. Optimal cancer growth inhibition at a particular day within the treatment period was calculated from the median RCV values of the treated (T) versus the controlled (C) group multiplied by 100%. A T/C value<50% was considered as anti-cancer activity.

GXF 251L (gastric) = details: resistant
Description: (§4) Nine kinds of human cancer cell lines out of six kinds of cancers were grown at 37° C. under a controlled atmosphere of 95% air and 5% CO2. The cells were grown on monolayer cultures of RPMI 1640 cell culture medium supplemented with 10% fetal calf serum.
(§5) The grown cells were harvested from exponential phase cultures by trypsinization and counted. The counted cells were placed in a plate, which has ninety six wells. Each well on the plate is in a shape of a flat-bottomed microtitre. Density of the cells in a suspension was adjusted depending on the cell line. The suspension was prepared by diluting the grown cells with the culture medium (RPMI 1640). Concentration of the cells were varied from 5×10^4 to 1×10^5 viable cells/ml. 100 μl of the suspension was placed in each well of the plate. […] Then add 50 μl of culture medium (RPMI 1640) only to 6 wells, 50 μl/well, among the 96 wells of one plate. It is called controlled. One well is filled with culture medium plus 5-FU. And another 50 μl of culture medium plus one of the stock solutions were added to each of the left 89 wells to allow cells to resume exponential growth.
(§6) In a further study, the cytotoxic activity profile of sodium meta-arsenite and arsenic acid sodium salt was investigated in different panels containing twelve (12) human cancer cell lines from eight (8) kinds of human cancers. The cancer cell samples were prepared as described in 1-1-B. Propidium iodide fluorescence assay method for this test was modified as the follows.

RXF393NL (renal) = details: resistant
Description: as §4, §5, §6

LXFE 66NL = LXFE 66NL non-small cell lung; resistant
Description: as §4, §5, §6

LXFA 629L = LXFA 629L non-small cell lung; resistant
Description: as §4, §5, §6

RXF 944LX [2] = assay: Anticancer activity in RXF 944LX cancer bearing nude mice, intermittent and daily schedules; details: for MTD: i.p., RXF 944LX
Description: as §1, §2, §3
In the experiment with renal cancer RXF 944LX, the anticancer activity of the compounds was explored using two administration schedules; 1) intermittent schedule of 4 days×3, and 2) a daily schedule for 2 weeks (days 0-4, 7-11).
The dose levels chosen for sodium meta-arsenite and arsenic acid sodium salt in these schedules were based on the experience in the 1st experiment. Additional small dose finding studies were executed.

[3] = test system: panel of 9 human cancer cell lines; assay: Cytotoxic activity, whole panel of 9 human cancer cell lines (means, active/total); format: cell-based
Description: Three kinds of stock solutions were prepared for in vitro cytotoxic activity test. The first solution is DMSO (dimethyl sulfoxide) mixed with sodium meta-arsenite. […] The third solution is DMSO mixed with arsenic acid sodium salt. Those three solutions were diluted with culture medium (RPMI 1640). The final concentrations of DMSO in those three solutions are less than 0.3 vol %.
as §4
as §5, with “1640).” for “1640). Concentration of the cells were varied from 5×10^4 to 1×10^5 viable cells/ml. 100 μl of the suspension was placed in each well of the plate.”
The cytotoxic activity test was executed with three plates simultaneously to check reliability of the data obtained. The three plates contain the same samples of cancer cells. The three plates were then incubated for 3-7 days under the same controlled atmosphere and cell proliferation was assessed with a modified propodium iodide fluorescence assay. After thawing of the plates, fluorescence was measured using a Millipore Cytofluor 2350-microplate reader (excitation 530 nm emission 620 nm) in order to quantify the total cell number. The assay included untreated and positive controls containing 5-FU.
Growth inhibition is defined as (numbers of cancer cell alive) treated (T)/(number of cells) control (C)×100% (T/C %).

[4] = test system: panel of 12 human cancer cell lines; assay: Cytotoxic activity, whole panel of 12 human cancer cell lines, modified propidium iodide assay; details: panel of 12 human cancer cell lines, 4 days
Description: as §4, §5, §6

[5] = 32 mg/kg i.p., days 0-4, 7, 14-18
[6] = mean over human cancer cell lines tested (9 line panel)

## arsenic acid sodium salt
RXF 944LX [1]; 3 mg/kg i.p., days 0, 7, 14
  BW loss % (day): +15 (21) %
  Drug-related deaths: 0/4
  Rating: − (−T/C ≧ 50%)
  SGD (specific growth delay): −0.5
  T/C %: 90%
RXF 944LX [1]; 10 mg/kg i.p., days 0, 7, 14
  BW loss % (day): +10 (21) %
  Drug-related deaths: 0/4
  Rating: − (−T/C ≧ 50%)
  SGD (specific growth delay): −0.2
  T/C %: 74%
RXF 944LX [1]; 30 mg/kg i.p., days 0, 7, 14
  BW loss % (day): +14 (21) %
  Drug-related deaths: 0/4
  Rating: − (−T/C ≧ 50%)
  SGD (specific growth delay): 0.1
  T/C %: 88%
RXF 944LX [1]; 3, 10, 30 mg/kg/day i.p., days 0, 7, 14
  T/C values of the 3 treatment groups: greater than 74%
RXF 944LX [1]; i.p. once daily on days 0, 7 and 14, RXF 944LX bearing nude mice
  Maximum Tolerated Dose (MTD): greater than 30 mg/kg/day
GXF 251L (gastric)
  IC70: > 100 mg/L
RXF393NL (renal)
  IC70: > 100 mg/L
LXFE 66NL
  IC70: > 100 mg/L
LXFA 629L
  IC70: > 100 mg/L
RXF 944LX [2]; 16 mg/kg i.p., days 0-4, 7-11
  BW loss % (day): −8 (14) %
  Drug-related deaths: 2/6
  SGD (specific growth delay): 0
  T/C %: 76%
RXF 944LX [2]; 30 mg/kg i.p., days 0, 4, 8
  BW loss % (day): +25 (14) %
  Drug-related deaths: 1/6
  SGD (specific growth delay): −0.2
  T/C %: 100%
RXF 944LX [2]; [5]
  BW loss % (day): −10 (14) %
  Drug-related deaths: 3/6
RXF 944LX [2]; 45 mg/kg i.p., days 0, 4, 8
  BW loss % (day): +22 (14) %
  Drug-related deaths: 2/6
  SGD (specific growth delay): −0.3
  T/C %: 100%
RXF 944LX [2]; daily schedule (days 0-4, 7-11)
  MTD: 16 mg/kg/day
RXF 944LX [2]; intermittent schedule (4 days×3)
  MTD: 45 mg/kg/day
[3]; 9 cell line panel
  Assessment from comparison of the IC50 values: inactive
[3]; [6]
  pIC50: 4.00
  IC90: 248 µM
  Mean IC50: 30.8 mg/L
  Mean IC90: 77.5 mg/L
[3]; mean over human cancer cell lines tested (9 line panel), sodium salt
  Mean IC70: 44.7 μg/ml and 143 μM
[4]
  Mean IC50: 25.5 mg/L
  Mean IC90: 76.6 mg/L
[4]; sodium salt
  Mean IC70: 40.1 μg/ml and 129 μM
[4]; read-out: Mean IC50
  pIC50: 4.09
[4]; read-out: Mean IC90
  IC90: 246 µM
